The source of these data is US20100016328A1, “PTERIN ANALOGS” (BioMarin Pharmaceutical, Inc., priority 2007, published 2010).

Structures can show the parent of a compound that is named as a salt. Where two headings read alike, the source gives them in different places.

Series [1] in a line: Pharmacokinetics of BH4 and BH4 analogs given by oral gavage to monkeys. The format is in vivo. To be noted: fasted cynomolgus monkeys; for AUC0-t / Cmax: equivalent of 80 mg of BH4, n=3, plasma over 25 hours, standard deviation in parenthesis; for Tmax: equivalent of 80 mg of BH4, n=3, standard deviation in parenthesis. As to the method:
Fasted cynomolgus monkeys were given BH4 and BH4 analogs by oral gavage (n=3), such that the amount of the analog administered was the equivalent of 80 mg of BH4. The plasma concentrations of the BH4, when administered directly, or the analogs was measured at various time points over a 25 hour period. The PK data is also shown in the following table, wherein the number in parenthesis is the standard deviation.

Series [2] in a line: Stability in human plasma. The format is in vitro ADME. As to conditions: concentration of compound remaining over a 60 minute period; FIG. 3. As to the method: (§1) The stability of various compounds as disclosed herein were tested in human and rat and in simulated gastric fluid. Each compound was tested over an hour period for concentration of the compound remaining at each time point. The results are shown in FIGS. 3 (human plasma stability), 4 (rat plasma stability), and 5 (simulated gastric fluid stability) for the compounds of Example 2, 3, 4, and 20.

The nature of series [3]: Stability in simulated gastric fluid. The format is in vitro ADME. To be noted: concentration of compound remaining over a 60 minute period; FIG. 5. As to the method: as §1
Series [4] can be described thus: Stability in rat plasma. To be noted: concentration of compound remaining over a 60 minute period; FIG. 4. The format is in vitro ADME. The method, then:
as §1

The subject of series [5] is human umbilical vein endothelial cells (HUVEC). Description: Nitric oxide production (nitrite+nitrate, Griess reaction) in NAS-pretreated HUVEC. The format is cell-based. To be noted: HUVEC pretreated with 3 mM NAS; for NO production (nitrite+nitrate): 50, 100, or 200 mM compound, 5-22 hours. The method, then: Cultured human umbilical vein endothelial cells (HUVEC) were pretreated with 3 mM N-acetylserotonin (NAS), an inhibitor of the enzyme sepiapterin reductase. Inhibition of this pathway typically results in loss of endogenous BH4, depressing the endogenous eNOS activity far below normal and provides an assay to test for restoration of eNOS activity.
Thus, subconfluent HUVECs were seeded in a 24-well plate and grown overnight in EGM2 medium (full growth medium). The next morning, fresh medium was added to the cells (300 μL/well), 3 mM NAS was added to the cells to decrease the endogenous BH4 levels. After an incubation of 1.5 hours, 50, 100, or 200 mM BH4 or compound of Example 5, Example 6, Example 7, or Example 9 were added to the cells. The cells were allowed to react with the BH4 or the compound of Example 5, Example 7, or Example 9 for 5-22 hours. The production of NO was then measured as changes in total (nitrite+nitrate) by the Griess reaction subsequent to nitrate reductase treatment. The percentage of nitrite+nitrate with BH4 or compound of Example 5, Example 7, or Example 9 is shown in FIG. 7 (after 5 hours); FIG. 8 (after 17 hours); and FIG. 9 (after 22 hours). The results for Example 6 are shown in FIG. 10 (after 5 hours) and FIG. 11 (after 20 hours).
(In general: Nitrite, measured by Griess reagent, commonly stands in for NO production.)

Details of series [6]: species or system male Sprague Dawley rats. To be noted: male, Sprague Dawley, rat, in vivo, po. As to the method: This example allows for comparison of the pharmacokinetics of the analog (Compound I) versus that of BH4 following single oral administration in rats.
With respect to the administered BH4, the maximum total biopterin concentrations in plasma 2 hrs and 1 hr post-dosing were 108 ng/ml (i.e., about 3 fold the endogenous level) and 1227 ng/ml (i.e., about 30 fold the endogenous level), respectively. […] The ratio of reduced biopterin to total biopterins in plasma (i.e., the reduced-form ratio) was relatively static (73%-96%).

The mark [7] stands for this setting: cynomolgus monkey, plasma, read-out: Tmax.

With `CC(C)[C@H](N)C(=O)N1c2c(nc(N)[nH]c2=O)NC[C@@H]1[C@@H](O)[C@H](C)O` (stereo in doubt) [Example 13, 2-Amino-5-(2-amino-3-methyl-butyryl)-6-(1,2-dihydroxy-propyl)-5,6,7,8-tetrahydro-1H-pteridin-4-one hydrochloride], in series [1], the AUC0-t was 13.7 ng·h/mL, the Cmax is given as 2.2 ng/mL and the Tmax worked out at 6.0 h.
For the molecule `C[C@H](OC(=O)[C@@H](N)CCCCN)[C@H](OC(=O)[C@@H](N)CCCCN)[C@H]1CNc2nc(N)[nH]c(=O)c2N1` [Example 11, 2,6-Diamino-hexanoic acid 2-(2-amino-4-oxo-3,4,5,6,7,8-hexahydro-pteridin-6-yl)-2-(2,6-diamino-hexanoyloxy)-1-methyl-ethyl ester pentahydrochloride], in series [1], the AUC0-t was 617 (336) ng hr/mL, the Cmax is recorded as 115 (65.4) ng/mL and the Tmax was 1.5 (0.09) hr.
Consider `CC(=O)O[C@@H]([C@H](C)OC(C)=O)[C@H]1CNc2nc(N)[nH]c(=O)c2N1C(C)=O` [Example 2, Acetic acid 2-acetoxy-1-(5-acetyl-2-amino-4-oxo-3,4,5,6,7,8-hexahydro-pteridin-6-yl)-propyl ester], for which the “stability in human plasma” value in series [2] is on record as “high level of stability”. For the same molecule, the “stability in simulated gastric fluid” value in series [3] was “high level of stability”. The “stability in rat plasma” value in series [4] was “high level of stability”.
As for `C[C@H](OC(=O)[C@@H](N)CCCCN)[C@H](O)[C@H]1CNc2nc(N)[nH]c(=O)c2N1` [Example 7, 2,6-Diamino-hexanoic acid 2-(2-amino-4-oxo-3,4,5,6,7,8-hexahydro-pteridin-6-yl)-2-hydroxy-1-methyl-ethyl ester tri-hydrochloride], in series [1] (setting [7]), the Tmax was determined as 2.67 h. In series [1], the AUC0-t was 572 (148) ng hr/mL and the Cmax is 82.3 (27.2) ng/mL. In series [5], the “effect on NAS-treated cells compared with Example 5” value (from here on “effect … compared with Example 5”) was “similar, if slightly reduced, effect” and the “NO production (nitrite+nitrate)” value is given as “increased NO production in a dose-dependent manner”.
Regarding `C[C@H](O)[C@H](O)[C@H]1CNc2nc(N)[nH]c(=O)c2N1C(=O)OCc1ccccc1` (stereo in doubt) [Example 20, 2-Amino-6-(1,2-dihydroxy-propyl)-4-oxo-4,6,7,8-tetrahydro-1H-pteridine-5-carboxylic acid benzyl ester], in series [2], the “stability in human plasma” value is recorded as “high level of stability”. Besides, in series [3], the “stability in simulated gastric fluid” value is listed as “high level of stability”. In series [4], the “stability in rat plasma” value is given as “high level of stability”.
`C[C@H](OC(=O)[C@@H]1CCCN1)[C@H](O)[C@H]1CNc2nc(N)[nH]c(=O)c2N1` [Example 9, Pyrrolidine-2-carboxylic acid 2-(2-amino-4-oxo-3,4,5,6,7,8-hexahydro-pteridin-6-yl)-2-hydroxy-1-methyl-ethyl ester dihydrochloride]: in series [1], the AUC0-t is given as 384 (214) ng hr/mL, the Cmax is given as 61.9 (34.8) ng/mL and the Tmax was 2.0 (0)^ hr. For the same molecule, in series [5], the “effect … compared with Example 5” value is reported as “similar, if slightly reduced, effect” and the “NO production (nitrite+nitrate)” value is “increased NO production in a dose-dependent manner”.
Regarding `CCC(C)[C@H](N)C(=O)O[C@@H](C)[C@H](O)[C@H]1CNc2nc(N)[nH]c(=O)c2N1` (stereo in doubt) [Example 6, 2-Amino-3-methyl-pentanoic acid 2-(2-amino-4-oxo-3,4,5,6,7,8-hexahydro-pteridin-6-yl)-2-hydroxy-1-methyl-ethyl ester], in series [5], the “effect … compared with Example 5” value was “similar, if slightly reduced, effect” and the “NO production (nitrite+nitrate)” value is “increased NO production in a dose-dependent manner”.
As for `CC(C)[C@H](N)C(=O)O[C@@H]([C@H](C)OC(=O)[C@@H](N)C(C)C)[C@H]1CNc2nc(N)[nH]c(=O)c2N1` [Example 10, 2-Amino-3-methyl-butyric acid 2-(2-amino-3-methyl-butyryloxy)-1-(2-amino-4-oxo-3,4,5,6,7,8-hexahydro-pteridin-6-yl)-propyl ester trihydrochloride], the Tmax in series [1] (setting [7]) amounted to 1.83 h. Further, in series [1], the AUC0-t was 625 (294) ng hr/mL and the Cmax is recorded as 138 (123) ng/mL.
As for `CCCC(=O)O[C@@H]([C@H](C)OC(=O)CCC)[C@H]1CNc2nc(N)[nH]c(=O)c2N1C(=O)CCC` [Example 4, Butyric acid 1-(2-amino-5-butyryl-4-oxo-3,4,5,6,7,8-hexahydro-pteridin-6-yl)-2-butyryloxy-propyl ester], the “stability in human plasma” value in series [2] was “high level of stability”. Moreover, the “stability in simulated gastric fluid” value in series [3] is on record as “high level of stability”. Besides, in series [4], the “stability in rat plasma” value is “high level of stability”.
Regarding `C[C@H](OC(=O)[C@@H]1CCCN1)[C@H](OC(=O)[C@@H]1CCCN1)[C@H]1CNc2nc(N)[nH]c(=O)c2N1` [Example 12, Pyrrolidine-2-carboxylic acid 1-(2-amino-4-oxo-3,4,5,6,7,8-hexahydro-pteridin-6-yl)-2-(pyrrolidine-2-carbonyloxy)-propyl ester trihydrochloride], in series [1], the AUC0-t is 438 (211) ng hr/mL, the Cmax is on record as 73.6 (42.9) ng/mL and the Tmax is given as 3.0 (1.0) hr.
For the molecule `CC[C@H](C)[C@H](N)C(=O)N1c2c(nc(N)[nH]c2=O)NC[C@@H]1[C@@H](O)[C@H](C)O` (stereo in doubt) [Example 14, 2-Amino-5-(2-amino-3-methyl-pentanoyl)-6-(1,2-dihydroxy-propyl)-5,6,7,8-tetrahydro-1H-pteridin-4-one hydrochloride], in series [1], the AUC0-t is 63.2 (25.6) ng hr/mL, the Cmax is given as 5.23 (2.1) ng/mL and the Tmax is 12.1 (11.9) hr.
For `C[C@H](O)[C@H](O)[C@H]1CNc2nc(N)[nH]c(=O)c2N1` [BH4, Tetrahydrobiopterin], in series [1], the AUC0-t is recorded as 288 (15.5) ng hr/mL, the Cmax is 42.0 (12.6) ng/mL and the Tmax is 3.0 (0)^ hr. In addition, in series [6], the “ratio of reduced biopterin to total biopterins in plasma (reduced-form ratio)” value is reported as 73-96%. In series [6] (10 mg/kg), the “maximum total biopterin concentration relative to the endogenous level” value is reported as “about 3 fold”, the “time of maximum total biopterin concentration post-dosing” value came out at 2 h and the “time of return to the endogenous level post-dosing” value was found to be 9 h. Moreover, in series [6] (100 mg/kg), the “maximum total biopterin concentration relative to the endogenous level” value was “about 30 fold”, the “time of maximum total biopterin concentration post-dosing” value worked out at 1 h and the “time of return to the endogenous level post-dosing” value was determined as 24 h.
On to `C[C@H](O)[C@H](O)[C@H]1CNc2nc(N)[nH]c(=O)c2N1C(=O)[C@@H](N)CCCCN` (stereo in doubt) [Example 15, 2-Amino-5-(2,6-diamino-hexanoyl)-6-(1,2-dihydroxy-propyl)-5,6,7,8-tetrahydro-1H-pteridin-4-one dihydrochloride], for which, in series [1], the AUC0-t was 36.8 (37.6) ng hr/mL, the Cmax is listed as 5.7 (1.7) ng/mL and the Tmax is listed as 12.0 (10.4) hr.
For `C[C@H](O)[C@H](O)[C@H]1CNc2nc(N)[nH]c(=O)c2N1C(=O)[C@@H]1CCCN1` (stereo in doubt) [Example 16, 2-Amino-6-(1,2-dihydroxy-propyl)-5-(pyrrolidine-2-carbonyl)-5,6,7,8-tetrahydro-1H-pteridin-4-one dihydrochloride] the same measures were 88.1 (31.5) ng hr/mL, 7.63 (2.7) ng/mL and 6.0 (0)^ hr.
